Results from patent US6534447B1, “Herbicidal pyridine compounds” (BASF Aktiengesellschaft, priority 1999, dated 2003).

Assays:
Type in all cases: in vivo
eight weed species = assay: Pre-emergence herbicidal evaluation, overall weed control; conditions: crop selective dose of 0.1 kg/ha
Excerpt: (§1) The pre-emergence herbicidal activity of the compounds of the present invention is exemplified by the following test in which the seeds of a variety of monocotyledonous and dicotyledonous plants are seperately mixed with potting soil and planted on top of approximately one inch of soil in separate post. After planting, the pots are sprayed with the selected aqueous acetone solution. containing test compound in sufficient quantity to provide the equivalent of about 0.025 to 0.4 kg per hectare of test compound per pot. The treated pots are then placed on greenhouse benches, watered and cared for in accordance with conventional greenhouse procedures. From 3 weeks after treatment, the tests are terminated and each pot is examined and rated according to the rating system set forth below.
Thus, there is evidence for the good potential of the compounds of the invention for excellent cross spectrum control of both grasses and broadleaf weeds in key crops.

[1] = system: Dolium multiflorum (LOLMU, ryegrass); assay: Post-emergence herbicidal evaluation; conditions: rate 0.100 kg/ha, 3 weeks after treatment
Method: (§2) These acetone solutions are diluted with water and the resulting formulations applied at dosage levels equivalent of about 0.025 to 0.4 kg per hectare of test compound per pot. After spraying the plants are placed on greenhouse benches and are cared for in the usual manner, commensurate with conventional greenhouse practices. From 3 weeks after treatment, the seedling plants are examined and rated according to the rating system provided above. A rating 0 indicates growth as untreated control, a rating 9 indicates death.

[2] = system: Setaria viridis (SETVI, green foxtail); assay: Post-emergence herbicidal evaluation; conditions: 3 weeks after treatment
Method: as §2

[3] = system: Matricaria inodora (MATIN, mayweed); assay: Post-emergence herbicidal evaluation; conditions: 3 weeks after treatment
Method: as §2

[4] = system: Abutilon theophrasti (ABUTH, velvetleaf); assay: Post-emergence herbicidal evaluation; conditions: 3 weeks after treatment
Method: as §2

[5] = system: Galium aparine (GALAP, cleaver); assay: Post-emergence herbicidal evaluation; conditions: 3 weeks after treatment
Method: as §2

[6] = system: Ipomoea hederacea (IPOHE, morning glory); assay: Post-emergence herbicidal evaluation; conditions: 3 weeks after treatment
Method: as §2

[7] = system: Echinochloa grus galli (ECHCG, barnyard grass); assay: Post-emergence herbicidal evaluation; conditions: 3 weeks after treatment
Method: as §2

[8] = system: Alopecurus myosuroides (ALOMY, black grass); assay: Post-emergence herbicidal evaluation; conditions: 3 weeks after treatment
Method: as §2

Zea mays (ZEAMX, maize) = assay: Pre-emergence herbicidal evaluation (crop); conditions: 3 weeks after treatment
Excerpt: as §1, with “below. [table] [table]” for “below.”

[9] = system: Glycine max (GLXMA, soyabeans); assay: Pre-emergence herbicidal evaluation (crop); conditions: 3 weeks after treatment
Excerpt: as §1, with “below. [table] [table]” for “below.”

[10] = system: Triticum aestivum (TRZAW, winter wheat); assay: Pre-emergence herbicidal evaluation (crop); conditions: 3 weeks after treatment
Excerpt: as §1, with “below. [table] [table]” for “below.”

[11] = system: Setaria viridis (SETVI, green foxtail); assay: Pre-emergence herbicidal evaluation; conditions: 3 weeks after treatment
Excerpt: as §1, with “below. [table] [table]” for “below.”

[12] = system: Matricaria inodora (MATIN, mayweed); assay: Pre-emergence herbicidal evaluation; conditions: 3 weeks after treatment
Excerpt: as §1, with “below. [table] [table]” for “below.”

[13] = system: Abutilon theophrasti (ABUTH, velvetleaf); assay: Pre-emergence herbicidal evaluation; conditions: 3 weeks after treatment
Excerpt: as §1, with “below. [table] [table]” for “below.”

[14] = system: Galium aparine (GALAP, cleaver); assay: Pre-emergence herbicidal evaluation; conditions: 3 weeks after treatment
Excerpt: as §1, with “below. [table] [table]” for “below.”

[15] = system: Ipomoea hederacea (IPOHE, morning glory); assay: Pre-emergence herbicidal evaluation; conditions: 3 weeks after treatment
Excerpt: as §1, with “below. [table] [table]” for “below.”

[16] = system: Echinochloa grus galli (ECHCG, barnyard grass); assay: Pre-emergence herbicidal evaluation; conditions: 3 weeks after treatment
Excerpt: as §1, with “below. [table] [table]” for “below.”

[17] = system: Stellaria media (STEME, chickweed); assay: Pre-emergence herbicidal evaluation; conditions: 3 weeks after treatment
Excerpt: as §1, with “below. [table] [table]” for “below.”

[18] = system: Alopecurus myosuroides (ALOMY, black grass); assay: Pre-emergence herbicidal evaluation; conditions: 3 weeks after treatment
Excerpt: as §1, with “below. [table] [table]” for “below.”

Cc1cc(OCCSC(F)(F)F)nc(Oc2cc(C(F)(F)F)nn2C)c1 [Example 1, 2-(1-methyl-3-trifluoromethylpyrazol-5-yloxy)-6-(2-trifluoromethylthioethoxy)-4-methylpyridine]
weed control (in words) (eight weed species): complete control
LOLMU rating [1]: 8 (8 - Approaching complete kill)
SETVI rating ([2]; rate 0.025 kg/ha): 5 (5 - Definite injury)
SETVI rating ([2]; rate 0.100 kg/ha): 8 (8 - Approaching complete kill)
SETVI rating ([2]; rate 0.400 kg/ha): 8 (8 - Approaching complete kill)
MATIN rating ([3]; rate 0.025 kg/ha): 5 (5 - Definite injury)
MATIN rating ([3]; rate 0.100 kg/ha): 7 (7 - Good herbicidal effect)
MATIN rating ([3]; rate 0.400 kg/ha): 8 (8 - Approaching complete kill)
ABUTH rating ([4]; rate 0.025 kg/ha): 5 (5 - Definite injury)
ABUTH rating ([4]; rate 0.100 kg/ha): 6 (6 - Herbicidal effect)
ABUTH rating ([4]; rate 0.400 kg/ha): 6 (6 - Herbicidal effect)
GALAP rating ([5]; rate 0.025 kg/ha): 2 (2 - Slight effect)
GALAP rating ([5]; rate 0.100 kg/ha): 5 (5 - Definite injury)
GALAP rating ([5]; rate 0.400 kg/ha): 8 (8 - Approaching complete kill)
IPOHE rating ([6]; rate 0.025 kg/ha): 8 (8 - Approaching complete kill)
IPOHE rating ([6]; rate 0.100 kg/ha): 8 (8 - Approaching complete kill)
IPOHE rating ([6]; rate 0.400 kg/ha): 9 (9 - Complete kill)
ECHCG rating ([7]; rate 0.025 kg/ha): 6 (6 - Herbicidal effect)
ECHCG rating ([7]; rate 0.100 kg/ha): 9 (9 - Complete kill)
ECHCG rating ([7]; rate 0.400 kg/ha): 9 (9 - Complete kill)
ALOMY rating ([8]; rate 0.025 kg/ha): 4 (4 - Injury)
ALOMY rating ([8]; rate 0.100 kg/ha): 7 (7 - Good herbicidal effect)
ALOMY rating ([8]; rate 0.400 kg/ha): 8 (8 - Approaching complete kill)
ZEAMX rating (Zea mays (ZEAMX, maize); rate 0.025 kg/ha): 2 (2 - Slight effect)
ZEAMX rating (Zea mays (ZEAMX, maize); rate 0.100 kg/ha): 4 (4 - Injury)
ZEAMX rating (Zea mays (ZEAMX, maize); rate 0.400 kg/ha): 5 (5 - Definite injury)
GLXMA rating ([9]; rate 0.025 kg/ha): 2 (2 - Slight effect)
GLXMA rating ([9]; rate 0.100 kg/ha): 3 (3 - Moderate effect)
GLXMA rating ([9]; rate 0.400 kg/ha): 4 (4 - Injury)
TRZAW rating ([10]; rate 0.025 kg/ha): 1 (1 - Trace effect)
TRZAW rating ([10]; rate 0.100 kg/ha): 2 (2 - Slight effect)
TRZAW rating ([10]; rate 0.400 kg/ha): 3 (3 - Moderate effect)
SETVI rating ([11]; rate 0.025 kg/ha): 9 (9 - Complete kill)
SETVI rating ([11]; rate 0.100 kg/ha): 9 (9 - Complete kill)
SETVI rating ([11]; rate 0.400 kg/ha): 9 (9 - Complete kill)
MATIN rating ([12]; rate 0.025 kg/ha): 9 (9 - Complete kill)
MATIN rating ([12]; rate 0.100 kg/ha): 9 (9 - Complete kill)
MATIN rating ([12]; rate 0.400 kg/ha): 9 (9 - Complete kill)
ABUTH rating ([13]; rate 0.025 kg/ha): 8 (8 - Approaching complete kill)
ABUTH rating ([13]; rate 0.100 kg/ha): 9 (9 - Complete kill)
ABUTH rating ([13]; rate 0.400 kg/ha): 9 (9 - Complete kill)
GALAP rating ([14]; rate 0.025 kg/ha): 6 (6 - Herbicidal effect)
GALAP rating ([14]; rate 0.100 kg/ha): 8 (8 - Approaching complete kill)
GALAP rating ([14]; rate 0.400 kg/ha): 8 (8 - Approaching complete kill)
IPOHE rating ([15]; rate 0.025 kg/ha): 6 (6 - Herbicidal effect)
IPOHE rating ([15]; rate 0.100 kg/ha): 9 (9 - Complete kill)
IPOHE rating ([15]; rate 0.400 kg/ha): 9 (9 - Complete kill)
ECHCG rating ([16]; rate 0.025 kg/ha): 7 (7 - Good herbicidal effect)
ECHCG rating ([16]; rate 0.100 kg/ha): 9 (9 - Complete kill)
ECHCG rating ([16]; rate 0.400 kg/ha): 9 (9 - Complete kill)
STEME rating ([17]; rate 0.025 kg/ha): 9 (9 - Complete kill)
STEME rating ([17]; rate 0.100 kg/ha): 9 (9 - Complete kill)
STEME rating ([17]; rate 0.400 kg/ha): 9 (9 - Complete kill)
ALOMY rating ([18]; rate 0.025 kg/ha): 7 (7 - Good herbicidal effect)
ALOMY rating ([18]; rate 0.100 kg/ha): 9 (9 - Complete kill)
ALOMY rating ([18]; rate 0.400 kg/ha): 9 (9 - Complete kill)
